Data reported in patent US20240174744A1, “METHODS OF TREATMENT USING PROTEIN BINDERS TO IRHOM2 EPITOPES” (SCIRHOM GMBH, priority 2021, published 2024).

Tested on: PMA-induced release of IL-6R from THP-1 cells
Test: ELISA-based IL-6R release assay, PMA-stimulated THP-1 cells
Type: cell-based
Settings: Homo sapiens, recombinant murine antibodies 1 μg/ml, Batimastat 10 μM, PMA 25 ng/ml, 1 hour
Experimental: In the following study, ELISA-based IL-6R release assays were performed to analyze the inhibitory effects of the antibodies of the present disclosure on PMA-induced release of endogenous IL-6R from human THP-1 monocytic cells.
In brief, on day 1, Nunc black MaxiSorp® 96-well plates (Thermo Fisher Scientific, USA) were coated for 7 hours with 100 μl per well of mouse anti-human IL-6R capture antibody (provided as part of the DuoSet ELISA kit) at 2 μg/ml TBS at room temperature. Capture antibody solution was removed and MaxiSorp® plates were blocked with 300 μl per well of TBS, 1% BSA at room temperature for 1.5 hours. […] Using an infinite M1000 (Tecan Group, Switzerland) microplate reader, the fluorescence of each well was collected at an excitation wavelength of 435 nm and an emission wavelength of 555 nm.

## CNC(=O)[C@H](Cc1ccccc1)NC(=O)[C@H](CC(C)C)[C@H](CSc1cccs1)C(=O)NO [Batimastat]
  inhibition at 10 µM: 88.6%
